Experiments:
[1] = test system: MITO-Luc mice; assay: Wound area measurement in MITO-Luc mice; type: in vivo, mouse; settings: 200 µg/kg s.c., 72 hours after treatment (vehicle 50%)
Description: To investigate to which extent the increased proliferation observed after the pharmacological treatments was functional to the healing process, we measured the size of the wound (Fig. 9a).
(§1) Ovariectomy was carried out as previously described. Wound healing was done after shaving by VEET depilatory cream a day before the treatment. The 1 cm full-thickness incisional wound was made through the skin and panniculus carnosus muscle of ovariectomized MITO-luc using a surgical scalpel (blade n°10, carbon steel, Swann-Morton Ltd). Round full-thickness wounds were done by cutting out a section of full-thickness skin (around 9 mm in diameter) using fine scissors on the dorsal skin of the isoflurane-anesthetized animal. For in vivo treatment the compounds were administered onto the subcutaneous area surrounding the wound by multiple subcutaneous injection, immediately after the generation of the wound.

[2] = test system: ER transcriptional activity; assay: In vivo BLI time course in wounded ovariectomized ERE-Luc mice, compounds s.c. around the wound; design: species or system mouse
Description: To study the estrogenic and healing properties of the two compounds, we generated a wound in the ERE-Luc mouse model and tested the activity of the two compounds administered s.c. in the area surrounding the wound as described in the methodology section.
Each group was composed of 4 ERE-Luc females’ mice ovariectomized 2 weeks’ prior the experiment to avoid any interference due to endogenous estrogens. Photon emission was measured in the living animals three times: at 0, 3 and 6 h after s.c. injection.
(§2) ERE-Luc and MITO-Luc mice were ovariectomized at two months of age; the experiment was done 2 weeks after surgery to allow the animals to recover and to decrease the levels of circulating estrogens. The animals were fed ad libitum with a special estrogen free diet (AIN 93 M, Mucedola) (Ciana et al. Endocrinology 2005) and housed in individually ventilated plastic cages within a temperature range of 22–25 °C, relative humidity of 50% ± 10% and under an automatic cycle of 12 h light/dark (lights on at 07:00 am). All animal experimentation was carried out in accordance with the ARRIVE and European Guidelines for Animal Care. All animal experiments were approved by the Italian Ministry of Research and University and controlled by a Departmental panel of experts. For the correct dosage of the compounds, the body weight of the animals (on empty stomach, fasted for at least 12–14 hours) was determined immediately before the treatment.
as §1
For the semi-quantitative analysis of in vivo photon emission, animals were injected i.p. with 80 mg/kg of luciferin (Beetle Luciferin Potassium Salt; Promega, Madison, WI, USA) 15 min prior the imaging session. For the imaging, mice were anaesthetized using isofluorane (Isofluorane-Vet; Merial, Lyon, France) and kept under anesthesia during the 5 minutes of the session carried out with a CCD camera: both ventral and dorsal acquisition (Xenogen IVIS Lumina System; Caliper, PerkinElmer company). Photon emission in selected body areas was measured using the Living Image Software (Caliper, PerkinElmer company). The analysis was done in ventral view: whole body, thymus, hepatic area, abdomen, limbs, vagina and in dorsal view in wound area and expressed as photon/second/cm2/steradiant (p/s/cm2/sr).

[3] = test system: MITO-Luc mice (reporter of mitosis); assay: Proliferation in the wound area, in vivo BLI of MITO-Luc mice; design: species or system mouse
Source text: Wound healing is a dynamic process consisting of four continuous, overlapping, and precisely programmed phases: hemostasis, inflammation, proliferation and tissue growth (proliferation) and remodeling (maturation). The healing effect of estrogens may be exerted at several levels, certainly the ability of the hormone to accelerate macrophage polarization towards the M2-reparative polarization stage plays a relevant role, however estrogens may also facilitate local cell proliferation and the formation of the granulation tissue, epithelialization, and wound contraction.
The experiments were done with the 1e compound as completely deprived of any activity on the uterus (Fig. 6). […] Photon emission was measured in the wound area at the following time: 0, 24, 48 and 72 hours post-treatment.
as §2
as §1, with “For in vivo treatment the compounds were administered onto the subcutaneous area surrounding the wound by multiple subcutaneous injection, immediately after the generation of the wound.” left out
For the semi-quantitative analysis of in vivo photon emission, animals were injected i.p. with 80 mg/kg of luciferin (Beetle Luciferin Potassium Salt; Promega, Madison, WI, USA) 15 min prior the imaging session. […] Photon emission in selected body areas was measured using the Living Image Software (Caliper, PerkinElmer company). The analysis was done in ventral view: whole body, thymus, hepatic area, abdomen, limbs, vagina and in dorsal view in wound area and expressed as photon/second/cm2/steradiant (p/s/cm2/sr).

[4] = test system: ER transcriptional activity; assay: Ex vivo BLI and luciferase enzymatic assay in organs of ERE-Luc mice; design: species or system mouse; settings: 200 µg/kg s.c., 6 hours after treatment
Description: We next examined photon emission in a series of organs excised from the mice euthanized at 6 hours after treatment by measuring photon emission with the CCD camera (Fig. 6a) and by the more sensitive enzymatic assay in tissue extracts of each organ (Fig. 6b).
The selected organs were dissected from the animals who had received luciferine 20 min before euthanasia. The tissues were immediately subjected to ex vivo imaging session of 5 minutes. Photon emission was quantified with the Living Image Software (Caliper, PerkinElmer company) for each tissue and expressed as p/s/cm2/sr.
Luciferase enzymatic activity was measured in cells or selected tissue homogenates by a luminometer (Glomax™96 microplate luminometer; Promega) using Promega standard luciferin (Beetle Luciferin Potassium Salt) and expressed as Relative Light Units over 10 sec/μg protein (RLU/μg protein). Proteins concentrations were measured by Bradford.

[5] = test system: ERE-Luc mice; assay: Uterus weight of ERE-Luc mice; type: in vivo, mouse; settings: 200 µg/kg s.c., 6 h after treatment, n = 4
Source text: The final study aiming at investigating the systemic effect of the NCE was done by measuring the uterus weight of all treated animal as the golden standard for the quantitative measure of estrogenic compounds.

[6] = test system: MITO-Luc mice; assay: Granulation tissue histoscore of round full-thickness wound at day 10; type: in vivo, mouse; settings: 200 µg/kg s.c., day 10, round wound, scale 1-3 (vehicle 0.3)
Description: The measure of photon emission from the wound area was done for several days after the wounding. 3 days after treatment the bioluminescent signal is highest (Fig. 10 Panel a).
as §1
At the time of euthanasia, the wounds with surrounding healthy tissue were excised, distended on a strip of hard paper and fixed in 10% buffered formalin (pH = 6). […] For histopathological examination 4 µm sections were routinely stained with Hematoxylin-Eosin (HE) and evaluated under a light microscope. The degree of re-epithelialization, the type and amount of granulation tissue and inflammation, which are the main features of wound healing, were scored separately. […]

[7] = test system: MITO-Luc mice; assay: Macrophage count (Iba1 immunohistochemistry) around the wound site; type: in vivo, mouse; settings: 200 µg/kg s.c., 72 hours after treatment
Description: To better understand whether the healing effect of 1e could be attributed to its anti-inflammatory action, at the end of in vivo imaging (72 hours after treatments) the tissue surrounding the wound was dissected and subjected immunohistochemical analysis using the pan macrophage marker Iba1. […] This observation confirmed that the estrogenic compounds were able to regulate the immune response at local level.
In particular, the criteria for the assignation of granulations value are: 1 = wound bed partially covered with granulation tissue; 2 = thin granulation over the whole wound bed; 3 = thick granulation over the whole wound bed. Evaluation of macrophages was done through a specific antibody and digital image analysis: 4 µm sections from each wound healing sample were immunostained with primary rabbit […] antibody against Iba1 antigen (Wako; #019-19741) to assess the number of macrophages.
The number of positive cells were counted using the ImageJ analysis program (http://rsb.info.nih.gov/ij/) in 400x microscopic fields selected at the periphery of the wound area.

In the case of `CCCCOC(=O)CCC#C[C@]1(O)CC[C@H]2[C@@H]3CCc4cc(O)ccc4[C@H]3CC[C@@]21C` [1e, 3,17β-Hydroxy-17α-(4′carbobutoxy-1′-butyn-1′-yl)estra-1,3,5-(10)-triene], the wound area reduction [1] is reported as 73%, the “photon emission in body areas (whole body, thymus, hepatic area, abdomen, limbs, vagina)” value ([2]; 200 µg/kg s.c. around wound, 3 or 6 h, ovx mice) is reported as “did not observe increased photon emission in any of the body areas” and the “increase of photon emission in the wound area with respect to time 0” value ([2]; 200 µg/kg s.c., 6 hours, trend) is reported as 30%. For the same compound, the “increase of photon emission from wound” value ([3]; 200 µg/kg s.c. around wound, 72 h versus time 0, ovx MITO-Luc) was 87%, the “photon emission from the wound area” value ([3]; 200 µg/kg s.c., 48 hours after administration) was “significantly increased” and the “bioluminescence in excised organs (ex vivo BLI, enzymatic luciferase assay)” value [4] was “did not induce bioluminescence in any of the organs investigated”. The “weight of the uterus versus controls” value [5] was “indistinguishable from controls”, the “Score of granulation tissue (fibrosis), histoscore mean” value [6] was 1.5 and the “number of macrophages (Iba1 positive) in the wound area lower than in controls” value [7] was 25%.
